Measured values from patent publication US9284595B2 (priority 2012, dated 2016).

Columns and labels:
BoNT/A-LC [1] = target: T1, BoNT/A-LC (Clostridium botulinum, UniProt P0DPI0); assay type: biochemical
BoNT/A Toxoid = BoNT/A Toxoid (Clostridium botulinum, UniProt P0DPI0)
[2] = target: heat inactivated BoNT/A-LC (Clostridium botulinum, UniProt P0DPI0)
BoNT/A-LC [3] = target: T1, BoNT/A-LC; assay type: biochemical; remark: listed apart in the source
BoNT/A Holotoxin = BoNT/A Holotoxin (Clostridium botulinum, UniProt P0DPI0); assay type: biochemical
Chain of BoNT/A Holotoxin (P0DPI0 2-448 limits assumed): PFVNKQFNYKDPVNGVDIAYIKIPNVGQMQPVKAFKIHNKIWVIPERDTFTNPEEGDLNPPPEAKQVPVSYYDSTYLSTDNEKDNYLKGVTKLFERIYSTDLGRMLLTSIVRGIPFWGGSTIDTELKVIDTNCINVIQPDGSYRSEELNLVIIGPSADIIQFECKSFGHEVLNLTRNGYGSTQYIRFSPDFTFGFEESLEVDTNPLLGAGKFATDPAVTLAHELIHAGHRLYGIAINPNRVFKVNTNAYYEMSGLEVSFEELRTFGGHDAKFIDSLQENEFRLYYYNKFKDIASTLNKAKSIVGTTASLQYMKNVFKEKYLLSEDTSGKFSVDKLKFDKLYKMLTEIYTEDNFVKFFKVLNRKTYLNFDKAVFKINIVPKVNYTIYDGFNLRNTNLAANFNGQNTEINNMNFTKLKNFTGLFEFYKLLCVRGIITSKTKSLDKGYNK

T1 sequence (P0DPI0 2-448 limits assumed): as above
Chain of heat inactivated BoNT/A-LC (P0DPI0 2-448 limits assumed): as above
Chain of BoNT/A Toxoid (P0DPI0 2-448 limits assumed): as above

In the case of “(KDabcyl)TRIDEANQRATKML(K5Fam) [SEQ. ID NO. 6]”, the “detection of BoNT/A-LC activity” value (BoNT/A-LC [1]) is reported as “incapable of detecting BoNT/A-LC activity”.

For “MDENLEQVSGIIGNLRHMALDMGNEIDTQNRQIDRIMEKADSN(KDabcyl)TRIDEANQRATKML(K5Fam) [SEQ. ID NO. 1]”, the “detection of BoNT/A Toxoid” value (BoNT/A Toxoid) was “not BoNT/A Toxoid, even when present at high concentrations”, the “detection of heat inactivated BoNT/A-LC” value [2] was “not heat inactivated BoNT/A-LC, even when present at high concentrations” and the “detection of BoNT/A-LC activity” value (BoNT/A-LC [1]) was “able to detect BoNT/A-LC”. For the same molecule, the “detection of BoNT/A-LC activity in the presence of common PCR inhibitors” value (BoNT/A-LC [1]) was “can detect BoNT/A-LC activity in the presence of common PCR inhibitors”, the “detection of biologically active BoNT/A-LC” value (BoNT/A-LC [1]) was “able to detect biologically active BoNT/A-LC” and the “fluorescence response to BoNT/A-LC” value (BoNT/A-LC [1]) was “able to detect biologically active BoNT/A-LC”. The “increase in fluorescence overtime compared to SNAPtide” value (BoNT/A-LC [1]) was “greater increase in fluorescence overtime” and the “limit of detection of BoNT/A-LC” value (BoNT/A-LC [1]) was “at least 0.04 ng”.

With `O[C@H](CS)[C@H](O)CS` (racemic) [DTT, Dithiothreitol] the “effect on BoNT/A-LC activity” value (BoNT/A-LC [3]) was “reduced BoNT/A-LC activity”.

With `O=C(O)CCP(CCC(=O)O)CCC(=O)O` [TCEP, tris(2-carboxyethyl)phosphine, reference compound] the “performance of TCEP concentration in BoNT/A Holotoxin assay” value (BoNT/A Holotoxin) was “samples with 1.0 mM TCEP performed better than samples with 2.0 mM TCEP” and the “performance of reducing agent in BoNT/A-LC assay” value (BoNT/A-LC [1]) was “performed better than samples with DTT (and zinc), and even better than samples containing no reducing agent”.
